The source of these data is US4518711A, “Conformationally constrained cyclic enkephalin analogs with delta receptor specificity” (Gibson-Stephens Institute, priority 1983, dated 1985).

The target in assay [1] is T1, delta type opiate receptors (mouse vas deferens preparation) (Mus musculus, UniProt P32300).
T1 construct: The mouse vas deferens was prepared following the method of Hughes et al; from tissue; host or cells: mouse vas deferens
In words: Mouse vas deferens (MVD) assay, inhibition of electrically stimulated contractions. The conditions noted are these: for IC50 (GPI)/IC50 (MVD): delta receptor selectivity, GPI versus MVD. It is filed as cell-based. As to the method: These assays tested the degree of electrically stimulated contractions in the MVD and GPI tissues.
The mouse vas deferens was prepared following the method of Hughes et al. One pair of vasa deferentia was used in each experiment.

In assay [2] the target is T2, delta receptors (rat brain membrane preparations) (Rattus norvegicus, UniProt P33533).
T2 construct: Whole brains with cerebellum removed were homogenized in 100 volumes of Tris-HCl buffer; from tissue; host or cells: rat whole brain (cerebellum removed) membrane homogenate
The experiment in a line: Rat brain binding assay, displacement of [3H][D-Ala2, D-Leu5]enkephalin.

For assay [3], the target named is T3, mu receptors (rat brain membrane preparations) (Rattus norvegicus, UniProt P33535).
T3 construct: Whole brains with cerebellum removed were homogenized in 100 volumes of Tris-HCl buffer; from tissue; host or cells: rat whole brain (cerebellum removed) membrane homogenate
The experiment in a line: Rat brain binding assay, displacement of [3H]naloxone.

Read-outs that look alike come from different tables or passages of the source. Where a SMILES comes first, the peptide text is derived from it. Bridges are numbered along the chain shown (N, C = ends). [ ]: non-standard residue; d: D form. dPen = CC(C)(S)[C@@H](N)C(=O)O

T2 sequence (P33533 whole entry): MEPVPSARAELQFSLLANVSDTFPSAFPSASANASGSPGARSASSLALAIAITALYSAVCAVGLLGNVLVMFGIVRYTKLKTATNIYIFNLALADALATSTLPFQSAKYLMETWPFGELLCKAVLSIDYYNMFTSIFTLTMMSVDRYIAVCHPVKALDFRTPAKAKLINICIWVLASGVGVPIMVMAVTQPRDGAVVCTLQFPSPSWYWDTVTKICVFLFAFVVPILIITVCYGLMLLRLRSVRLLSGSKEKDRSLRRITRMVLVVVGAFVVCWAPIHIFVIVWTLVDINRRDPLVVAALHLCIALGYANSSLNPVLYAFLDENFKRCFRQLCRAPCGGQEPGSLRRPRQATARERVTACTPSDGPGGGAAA
T3 sequence (P33535 whole entry): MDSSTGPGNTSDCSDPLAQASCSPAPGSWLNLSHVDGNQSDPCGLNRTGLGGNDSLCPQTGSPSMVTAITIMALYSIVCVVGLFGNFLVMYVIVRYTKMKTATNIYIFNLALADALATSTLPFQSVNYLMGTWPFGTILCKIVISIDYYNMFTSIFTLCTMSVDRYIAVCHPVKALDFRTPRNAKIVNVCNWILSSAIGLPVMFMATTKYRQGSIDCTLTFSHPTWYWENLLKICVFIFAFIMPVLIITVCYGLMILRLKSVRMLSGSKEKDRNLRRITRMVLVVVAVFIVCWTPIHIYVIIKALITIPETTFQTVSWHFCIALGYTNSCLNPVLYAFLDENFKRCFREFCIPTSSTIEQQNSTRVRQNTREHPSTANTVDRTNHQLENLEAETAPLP
T1 sequence (P32300 whole entry): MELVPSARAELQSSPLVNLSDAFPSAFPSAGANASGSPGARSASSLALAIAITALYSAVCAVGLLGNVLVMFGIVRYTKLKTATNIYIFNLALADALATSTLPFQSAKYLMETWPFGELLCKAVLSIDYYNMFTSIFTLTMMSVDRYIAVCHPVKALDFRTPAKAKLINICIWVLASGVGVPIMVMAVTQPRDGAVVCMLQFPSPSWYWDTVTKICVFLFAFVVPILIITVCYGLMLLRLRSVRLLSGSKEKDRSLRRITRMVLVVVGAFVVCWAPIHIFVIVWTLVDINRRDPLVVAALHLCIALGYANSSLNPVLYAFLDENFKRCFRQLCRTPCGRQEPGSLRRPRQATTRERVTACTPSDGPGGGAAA

Turning to `CSCC[C@H](NC(=O)[C@H](Cc1ccccc1)NC(=O)CNC(=O)[C@@H](C)NC(=O)[C@@H](N)Cc1ccc(O)cc1)C(N)=O` [[D-Ala^2, Met^5]Enkephalinamide, [D-Ala^2, Met^5]Enkephalinamide], the IC50 – broadly, the concentration at which inhibition is half-maximal – in assay [1] was 3.75 nM.
For `Oc1ccc2c3c1O[C@H]1[C@@H](O)C=C[C@H]4[C@@H](C2)NCC[C@@]341` [Normorphine], in assay [1], the “IC50 (GPI)/IC50 (MVD)” value worked out at 0.17. Also, the IC50 in assay [1] (electrically stimulated contractions, mouse vas deferens, read-out: IC50 (nM) MVD) worked out at 540 nM.
`C[C@@H](O)[C@H](NC(=O)[C@@H]1CSSC(C)(C)[C@@H](NC(=O)[C@@H](N)Cc2ccc(O)cc2)C(=O)NCC(=O)N[C@@H](Cc2ccccc2)C(=O)N1)C(=O)O` (H-Y[dPen]GFCT-OH; disulfide 2-5): the figures for the IC50 in assay [2], in assay [3] and in assay [1] were 5.2 nM, 146 nM and 0.6 nM, respectively. Besides, the “IC50 (NAL)/IC50 (DADLE)” value in assay [2] (delta receptor selectivity in rat brain binding) is given as 28.2. The “IC50 (GPI)/IC50 (MVD)” value in assay [1] was 380.
As for `CC(C)C[C@H](NC(=O)[C@H](Cc1ccccc1)NC(=O)CNC(=O)[C@@H](CO)NC(=O)[C@@H](N)Cc1ccc(O)cc1)C(=O)N[C@H](C(=O)O)[C@@H](C)O` [[D-Ser^2, Leu^5, Thr^6]Enkephalin, [D-Ser^2, Leu^5, Thr^6]enkephalin], the results for the IC50 in assay [2] and in assay [3] were 5.73 nM and 88 ± 6 nM, respectively.
The matching figures for `CC(C)C[C@H](NC(=O)[C@H](Cc1ccccc1)NC(=O)CNC(=O)[C@H](NC(=O)[C@@H](N)Cc1ccc(O)cc1)[C@H](C)O)C(=O)N[C@H](C(=O)O)[C@@H](C)O` [[D-Thr^2, Leu^5, Thr^6]Enkephalin, [D-Thr^2, Leu^5, Thr^6]enkephalin]: 6.4 nM and 36.3 nM.
